# In patent publication US6723531B2, “Method for modulating expression of exogenous genes in mammalian systems, and products related thereto” (The Salk Institute for Biological Studies, priority 1996, dated 2004):
# Entries after “also recorded” stand apart in the source; their conditions may differ.
# Legend:
# adult mice = test: Toxicity study in adult mice; format: in vivo; conditions: intraperitoneal, 20 mg in sesame oil, observed approximately two months
# Method: In order to use muristerone as a potential hormone in mice, its toxicity and bioavailability was examined. For toxicity studies, adult mice were injected intraperitonealy with 20 mg of muristerone A suspended in sesame oil. The mice were then observed for approximately two months. […] In addition to the inert qualities of muristerone (an ecdysone), overexpression of VpEcR and RXR appears not to be toxic.
# [1] = tested on: CV-1 cells transfected with CMX-GEcR, CMX-hRXRa, and EcREx5-DMTV-Luc; test: Bioavailability study: serum of injected mice tested on transfected CV-1 cells; format: in vivo
# Method: For muristerone bioavailability studies, adult mice were injected intraperitoneally with sesame oil with or without […] of muristerone, and were subsequently sacrificed for serum collection. After twelve hours, blood was drawn from the mice, and the serum was isolated by brief centrifugation of the whole blood. In order to conduct transfection assays to test for muristerone activity, serum from sesame oil injected mice was divided, and half was supplemented with muristerone to a final concentration of 10 μM. The three batches of mouse serum were diluted 1:10 in DMEM and placed onto CV-1 cells transfected with CMX-GEcR, CMX-hRXRa, and EcREx5-DMTV-Luc.
# [2] = tested on: N13 cells (293 cells with VpEcR, RXR and ecdysone inducible reporter); test: Dose-response assay in N13 cells (β-galactosidase and luciferase reporters); format: cell-based; conditions: 36 hours
# Method: (§1) N13 cells were grown with varying concentrations of muristerone for 36 hours and then assayed for β-galactosidase activity (open squares) by standard ONPG assay or for luciferase activity (closed circles). […] N13 cells were grown in separate wells in the presence of 1 μM muristerone, harvested at varying times, and assayed for luciferase activity as described in Example 3.
# FIG. 5 compares the dose-dependent activation of N13 cells with muristerone (X) and ponasterone A (open circles).
# A dose-response assay was conducted by growing N13 cells with varying concentrations of muristerone for 36 hours and then assaying for β-galactosidase activity (using the well-known ONPG assay), or the cells were assayed for luciferase activity. […] One-hundred fold induction was achieved by muristerone concentrations as low as 100 nM (FIG. 3A).
# A dose-response assay was conducted as described in Example 3, by growing N13 cells with varying concentrations of muristerone or ponasterone A for 36 hours and then assaying for β-galactosidase activity (using the well-known ONPG assay), or the cells were assayed for luciferase activity.
# pregnant mice = test: Teratogenic study in pregnant mice; format: in vivo; conditions: 20 mg in sesame oil, mother and pups observed three months
# [3] = target: T1, ecdysone receptor (EcR)/USP (Drosophila melanogaster, UniProt P34021); test: Transient transfection reporter assay in CV-1 cells, ecdysone receptor with USP; format: cell-based; conditions: 1 μM muristerone A, unmodified ecdysone receptor
# T1 construct: expressed in transfected cells; host or cells: CV-1 cells
# T1 sequence (P34021 1-878): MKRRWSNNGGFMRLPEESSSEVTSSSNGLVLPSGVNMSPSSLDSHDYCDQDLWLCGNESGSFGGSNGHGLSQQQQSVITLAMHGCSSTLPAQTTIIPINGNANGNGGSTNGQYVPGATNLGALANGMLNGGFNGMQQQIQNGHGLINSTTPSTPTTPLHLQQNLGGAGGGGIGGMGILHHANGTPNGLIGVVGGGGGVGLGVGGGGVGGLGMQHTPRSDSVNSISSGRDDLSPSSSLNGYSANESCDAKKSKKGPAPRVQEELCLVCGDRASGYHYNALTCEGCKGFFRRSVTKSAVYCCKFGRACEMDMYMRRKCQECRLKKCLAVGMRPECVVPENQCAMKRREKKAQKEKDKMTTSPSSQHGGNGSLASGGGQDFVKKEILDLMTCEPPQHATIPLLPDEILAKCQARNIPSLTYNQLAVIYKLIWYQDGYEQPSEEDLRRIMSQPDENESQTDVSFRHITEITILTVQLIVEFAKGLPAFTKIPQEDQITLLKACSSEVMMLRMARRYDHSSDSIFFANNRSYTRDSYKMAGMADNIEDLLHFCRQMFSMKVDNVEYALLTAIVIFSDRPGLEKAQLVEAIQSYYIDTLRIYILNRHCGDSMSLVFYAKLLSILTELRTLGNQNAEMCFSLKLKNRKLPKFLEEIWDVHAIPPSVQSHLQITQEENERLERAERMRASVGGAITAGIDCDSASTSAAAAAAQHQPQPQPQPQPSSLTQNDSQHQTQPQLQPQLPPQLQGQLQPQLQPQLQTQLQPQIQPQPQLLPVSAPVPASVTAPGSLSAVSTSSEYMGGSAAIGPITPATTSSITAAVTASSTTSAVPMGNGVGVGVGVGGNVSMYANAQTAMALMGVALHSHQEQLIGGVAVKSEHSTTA
# T1 sequence (P20153 1-508 partner): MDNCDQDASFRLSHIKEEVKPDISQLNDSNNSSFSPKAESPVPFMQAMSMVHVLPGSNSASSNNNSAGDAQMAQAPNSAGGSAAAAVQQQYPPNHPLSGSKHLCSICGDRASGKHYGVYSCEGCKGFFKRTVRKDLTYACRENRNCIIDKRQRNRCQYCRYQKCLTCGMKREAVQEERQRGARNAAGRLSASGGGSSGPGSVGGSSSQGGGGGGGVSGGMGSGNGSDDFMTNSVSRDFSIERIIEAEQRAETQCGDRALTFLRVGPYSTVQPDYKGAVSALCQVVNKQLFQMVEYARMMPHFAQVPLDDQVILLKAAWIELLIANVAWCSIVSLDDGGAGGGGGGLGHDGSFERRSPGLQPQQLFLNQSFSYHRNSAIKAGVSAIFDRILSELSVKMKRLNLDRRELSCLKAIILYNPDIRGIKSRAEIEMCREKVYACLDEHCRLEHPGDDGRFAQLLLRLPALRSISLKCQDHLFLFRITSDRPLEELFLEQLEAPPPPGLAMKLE
# Method: CV-1 cells were maintained in DMEM supplemented with 10%. Fetal Bovine Serum. Transient transfections were performed using DOTAP transfection reagent (Boehringer-Mannheim). Transfections using β-galactosidase as the reporter were assayed either by Galactolight luminescent assay (Tropix, Bedford, Mass.) or by standard liquid ONPG assay (Sigma, St. Louis, Mo.). The values were normalized by co-transfection of CMX-luciferase. Transfections using luciferase as the reporter were assayed by standard techniques using luciferin and ATP. These values were normalized by co-transfection of CMX-β-galactosidase. Hormone treated cells were treated with ethanol, 50 μM Juvenile Hormone III (Sigma), 1 μM muristerone A (Zambon, Bresso, IT), or 1 μM dexamethasone (Sigma) unless otherwise noted.
# To maximize the sensitivity of the invention ecdysone inducible system, modifications of the ecdysone receptor were made. The N-terminal transactivation domain of the ecdysone receptor was replaced by the corresponding domain of the glucocorticoid receptor (GR), resulting in the modified ecdysone receptor GEcR (See FIG. 1D). CV-1 cells were transfected with the plasmid CMX-GEcR encoding the modified ecdysone receptor as discussed above. […]
# [4] = tested on: ecdysone inducible promoter (CD3-VpEcR; CD3-RXR; ESHβ); test: Northern blot of receptor/reporter double transgenic mice; format: in vivo; conditions: 10 mg intraperitoneal, RNA 48 hours after treatment, thymus
# Method: To produce transgenic mice, the following DNA constructs were prepared and subsequently injected into fertilized eggs: CD3-VpEcR, CD3-RXR, ESHβ (Lee et al., J. Exp. Med. 175:1013-1025 (1992)). Two separate lines of transgenic mice were generated harboring either an ecdysone inducible reporter, ESHβ, or a T-cell specific expression construct of VpEcR and RXR, respectively. The former are referred to as reporter mice, the latter are referred to as receptor mice, and double transgenic mice are referred to as receptor/reporter mice. Constructs CD3-VpEcR and CD3-RXR were mixed and coinjected, while ESHB was injected alone. Primary genotyping was performed by Southern blot analysis and the transmission of transgenic mice was monitored by dot blot analysis. Receptor mice were analyzed for VpEcR and RXR expression by Northern blot analysis of RNA collected from these mice. For Northern blot analysis, 15 μg of total RNA obtained from the thymus, and various tissues as a control, was run on a denaturing gel and blotted onto a nitrocellulose membrane. The blot was probed with a radiolabeled β-gal-specific probe and exposed on film for 2 days. These receptor mice were healthy, fertile, and appeared normal by visual inspection. In addition, the transgene was transferred to the offspring as expected by Mendelian genetics. […]
# [5] = tested on: N13 cells (293 cells with VpEcR, RXR and ecdysone inducible reporter); test: X-gal staining of stable cell line N13; format: cell-based; conditions: 24 hours of treatment with 1 μM muristerone; 3 hours of staining
# Method: Stable cell lines were generated containing the modified ecdysone receptor VpEcR, a heterodimeric partner (RXR), and an ecdysone inducible reporter (FIG. 2). 293 cells were transfected with the following linearized plasmids, pRC-ESHβ, EcREx5-ΔMTV-Luc, CMX-VpEcR, and CMX-hRXRa. The following day, the cells were split 1:10 and were allowed to recover one day prior to selection with 1 mg/ml G418 (GIBCO). After 14 days of selection, 14 individual clones were isolated and grown separately in the presence of 0.5 mg/ml G418.
# One of these cell lines, N13, was grown in the presence or absence of 1 μM muristerone for 20 hours. Cell lysates were then assayed for β-galactosidase and luciferase activities as described in Example 1. X-gal staining was performed on the stable cell lines. Cells were fixed briefly with 10% formaldehyde in PBS and then stained with X-Gal (Molecular Probes, Eugene, Oreg.) for 2 to 6 hours. After 24 hours of treatment with 1 μM muristerone, 100% of the cells turned dark blue after 3 hours of staining. Thus, mammalian cells containing the modified ecdysone receptor VpEcR, a heterodimeric partner (RXR), and a reporter gene construct regulated by a modified ecdysone response element, function to efficiently express an exogenous gene in response to a ligand, e.g., ecdysone.
# [6] = tested on: N13 cells (293 cells with VpEcR, RXR and ecdysone inducible reporter); test: Kinetics of induction in N13 cells (luciferase activity); format: cell-based; conditions: 1 μM muristerone
# Method: as §1
# Finally, the kinetics of muristerone mediated induction was measured. N13 cells were grown in separate wells in the presence of 1 μM muristerone, harvested at varying times, and assayed for luciferase activity. Inductions of 100-fold in 3 hrs., 1000 fold in 8 hrs., and maximal effects of 20,000 fold after 20 hours of treatment were observed (FIG. 3B).
compound,measurement,setting,value
CC(C)CC[C@@H](O)[C@](C)(O)[C@H]1CC[C@@]2(O)C3=CC(=O)[C@]4(O)C[C@@H](O)[C@@H](O)C[C@]4(C)[C@H]3[C@H](O)C[C@]12C [muristerone A],toxicity,adult mice,neither toxic
same,luciferase activity of serum from treated mice,"[1]; intraperitoneal 10 μmg in sesame oil, serum after twelve hours, diluted 1:10 in DMEM",comparable to that seen from untreated mouse serum supplemented with 1 μM muristerone
same,activity when injected into mice,"[1]; mice, intraperitoneal",maintains its activity
same,inactivation or blunting of activity by serum proteins,[1]; mouse serum,nor inactivated by serum binding proteins; also recorded: little or no blunting of activity
same,fold induction,[2]; concentrations as low as 100 nM,One-hundred
same,inducibility of β-galactosidase and luciferase reporters,[2]; final concentration 10 μM,~3 orders of magnitude
same,teratogenicity,pregnant mice,"neither toxic, teratogenic"
same,muristerone responsiveness (fold induction),[3],3 fold
same,induction from an ecdysone inducible promoter (Northern blot),[4],significant induction
same,cells turned dark blue (X-gal staining),[5],100%
same,induction of luciferase activity,[6]; 3 hrs,100 fold
same,induction of luciferase activity,[6]; 8 hrs,1000 fold
same,maximal induction of luciferase activity,[6]; after 20 hours of treatment,"20,000 fold"
